# Where “and” joins values, the source holds several entries; their conditions need not be identical. Identical values can stand only once. Like-named read-outs stand apart in the source and are kept apart here.
# Assays:
# [1] = target: T1, Wild type P450cam (Pseudomonas putida, UniProt P00183); type: binding, P. putida; conditions: for Wild type ΔSpin high/low: -- = no shift, nd = not determined
# [2] = target: P450cam Mutant Y96A (Pseudomonas putida, UniProt P00183, C335A/Y97A); type: binding, P. putida
# Sequence of P450cam Mutant Y96A (P00183 2-415 Y97A/C335A): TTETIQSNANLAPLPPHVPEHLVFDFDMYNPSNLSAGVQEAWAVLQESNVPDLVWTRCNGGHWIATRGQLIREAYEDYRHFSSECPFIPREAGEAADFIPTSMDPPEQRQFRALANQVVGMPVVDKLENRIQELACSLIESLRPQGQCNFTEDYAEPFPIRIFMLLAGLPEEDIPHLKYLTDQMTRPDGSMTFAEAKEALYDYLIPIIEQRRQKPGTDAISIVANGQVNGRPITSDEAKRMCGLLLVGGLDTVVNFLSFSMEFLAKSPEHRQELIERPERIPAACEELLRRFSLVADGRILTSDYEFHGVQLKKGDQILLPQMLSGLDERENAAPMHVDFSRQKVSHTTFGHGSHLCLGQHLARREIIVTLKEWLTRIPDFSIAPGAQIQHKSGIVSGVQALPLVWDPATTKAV
# Sequence of P450cam Mutant Y96A (P16640 whole entry, further chain): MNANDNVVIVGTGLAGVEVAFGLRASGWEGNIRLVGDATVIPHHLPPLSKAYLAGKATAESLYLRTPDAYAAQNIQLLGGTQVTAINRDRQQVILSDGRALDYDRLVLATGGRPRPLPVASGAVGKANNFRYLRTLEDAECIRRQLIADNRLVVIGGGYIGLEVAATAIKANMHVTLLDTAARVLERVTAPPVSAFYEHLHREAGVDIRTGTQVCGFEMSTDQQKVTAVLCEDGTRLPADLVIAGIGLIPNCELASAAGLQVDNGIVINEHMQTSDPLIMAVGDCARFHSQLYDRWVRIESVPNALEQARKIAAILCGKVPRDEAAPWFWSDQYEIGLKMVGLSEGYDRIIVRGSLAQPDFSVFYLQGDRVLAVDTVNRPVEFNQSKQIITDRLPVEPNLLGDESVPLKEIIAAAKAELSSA
# Sequence of P450cam Mutant Y96A (P00259 whole entry, further chain): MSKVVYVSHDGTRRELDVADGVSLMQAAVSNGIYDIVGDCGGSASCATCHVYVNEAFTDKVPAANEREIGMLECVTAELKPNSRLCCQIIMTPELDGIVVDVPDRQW
# [3] = target: T1, Wild type P450cam; assay: Turnover rate measured as NADH consumption rate; type: biochemical, P. putida; conditions: small alkanes; background about 0.07
# Method: (§1) A buffered solution (50 mM Tris.HCI, pH 7.4), typically 3 ml in volume, containing 10 uM putidaredoxin, 2 uM putidaredoxin reductase, 1 uM cytochrome P-450cam mono-oxygenase (wild-type or mutant), 200 mM KCI, 50 ug/ml bovine liver catalase (Sigma), and 1 mM target organic compound such as cyclohexylbenzene (added as a 0.1 M stock in ethanol) was preincubated at 30° C. for 5 minutes. The enzymatic reaction was initiated by adding NADH to a total concentration of 2 mM. Further four aliquots of NADH (to increase the NADH concentration by 1 mM each time) were added in intervals of 10 minutes, and 30 minutes into the incubation one aliquot of substrate (to increase the concentration by 1 mM) was also added. The reaction was quenched after 60 minutes by adding 0.5 ml chloroform and vortexing the mixture. The phases were separated by centrifugation (4000 g) at 4° C. The chloroform layer was analyzed by gas chromatography.
# (§2) The NADH concentration can be monitored at 340 nm and, in all cases, more substrates and NADH are added during the incubation.
# (§3) Turnover rate measured as NADH consumption rate
# (§4) (nmole NADH/nmole P450cam/s).
# [4] = target: T2, P450cam Y96A (also contains the C334A mutation) (Pseudomonas putida, UniProt P00183, C335A/Y97A); type: biochemical, P. putida; conditions: small alkanes
# T2 construct: reconstituted with putidaredoxin and putidaredoxin reductase
# T2 sequence (P00183 2-415 Y97A/C335A): as the sequence (P00183 2-415 Y97A/C335A) above
# T2 sequence (P16640 whole entry, further chain): as the sequence (P16640 whole entry, further chain) above
# T2 sequence (P00259 whole entry, further chain): as the sequence (P00259 whole entry, further chain) above
# Method: as §1, §2, §3, §4
# [5] = target: T3, P450cam WT (Pseudomonas putida, UniProt P00183); assay: Product distribution following oxidation of substrates (GC); type: biochemical, P. putida; conditions: for Products (%) WT: label = product
# T3 construct: reconstituted with putidaredoxin and putidaredoxin reductase
# T3 sequence (P00259 whole entry): as the sequence (P00259 whole entry, further chain) above
# T3 sequence (P16640 whole entry, further chain): as the sequence (P16640 whole entry, further chain) above
# T3 sequence (P00183 whole entry): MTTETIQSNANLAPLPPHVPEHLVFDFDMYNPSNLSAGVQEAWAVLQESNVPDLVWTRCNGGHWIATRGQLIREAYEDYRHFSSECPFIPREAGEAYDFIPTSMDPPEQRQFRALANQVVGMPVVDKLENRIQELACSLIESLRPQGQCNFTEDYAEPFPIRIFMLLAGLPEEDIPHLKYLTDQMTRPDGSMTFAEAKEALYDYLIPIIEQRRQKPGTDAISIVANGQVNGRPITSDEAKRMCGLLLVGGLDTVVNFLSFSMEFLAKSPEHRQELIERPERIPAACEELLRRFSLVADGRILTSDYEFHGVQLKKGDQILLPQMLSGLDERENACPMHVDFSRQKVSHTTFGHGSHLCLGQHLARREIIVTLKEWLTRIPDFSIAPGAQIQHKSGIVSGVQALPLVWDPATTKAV
# Method: as §1
# (§5) For many substrate compounds such as cyclohexylbenzene for which not all the P-450cam-mediated oxidation products are commercially available, the chloroform extracts are evaporated to dryness under a stream of nitrogen. The residues were extracted with hexane and the oxidation products separated by high performance liquid chromatography, eluting with a hexane/isopropanol gradient. The purified products were then identified by mass spectroscopy and particularly nuclear magnetic resonance spectroscopy.
# as §2
# [6] = target: T4, P450cam active site mutant Y96A (also C334A) (Pseudomonas putida, UniProt P00183, C335A/Y97A); type: biochemical, P. putida; conditions: for Products(%) Y96A: label = product
# T4 construct: reconstituted with putidaredoxin and putidaredoxin reductase
# T4 sequence (P00183 2-415 Y97A/C335A): as the sequence (P00183 2-415 Y97A/C335A) above
# T4 sequence (P00259 whole entry, further chain): as the sequence (P00259 whole entry, further chain) above
# T4 sequence (P16640 whole entry, further chain): as the sequence (P16640 whole entry, further chain) above
# Method: as §1, §5, §2
# [7] = target: T5, P450cam active site mutant Y96F (also C334A) (Pseudomonas putida, UniProt P00183, C335A/Y97F); type: biochemical, P. putida; conditions: for Products(%) Y96F: label = product
# T5 construct: reconstituted with putidaredoxin and putidaredoxin reductase
# T5 sequence (P16640 whole entry): as the sequence (P16640 whole entry, further chain) above
# T5 sequence (P00183 2-415 Y97F/C335A): as the sequence (P00183 2-415 Y97A/C335A) above, with A96F counted along it
# T5 sequence (P00259 whole entry, further chain): as the sequence (P00259 whole entry, further chain) above
# Method: as §1, §5, §2
# [8] = target: T6, P450cam active site mutant Y96L (also C334A) (Pseudomonas putida, UniProt P00183, C335A/Y97L); type: biochemical, P. putida; conditions: substrate cyclohexylbenzene; for Products (%) Y96L: label = product
# T6 construct: reconstituted with putidaredoxin and putidaredoxin reductase
# T6 sequence (P00183 2-415 Y97L/C335A): as the sequence (P00183 2-415 Y97A/C335A) above, with A96L counted along it
# T6 sequence (P16640 whole entry, further chain): as the sequence (P16640 whole entry, further chain) above
# T6 sequence (P00259 whole entry, further chain): as the sequence (P00259 whole entry, further chain) above
# Method: as §1, §5, §2
# [9] = target: T7, P450cam active site mutant Y96V (also C334A) (Pseudomonas putida, UniProt P00183, C335A/Y97V); type: biochemical, P. putida; conditions: substrate cyclohexylbenzene; for Products (%) Y96V: label = product
# T7 construct: reconstituted with putidaredoxin and putidaredoxin reductase
# T7 sequence (P00183 2-415 Y97V/C335A): as the sequence (P00183 2-415 Y97A/C335A) above, with A96V counted along it
# T7 sequence (P00259 whole entry, further chain): as the sequence (P00259 whole entry, further chain) above
# T7 sequence (P16640 whole entry, further chain): as the sequence (P16640 whole entry, further chain) above
# Method: as §1, §5, §2
# [10] = Protein dimerisation by anion exchange FPLC and gel filtration; type: physicochemical; conditions: Resource Q FPLC and Superose 12 gel filtration; C334A even at high concentrations (0.1 mM range)
# Description: We concluded that wild-type P-450cam underwent dimerisation by intermolecular S--S disulphide bond formation between the surface cysteine 334 on two protein molecules.
# [11] = Protein aggregation upon standing/storage; type: physicochemical; conditions: storage at 4° C., and even in 50% glycerol solutions at -20° C.
# Description: The C334A mutation has the obvious benefit of removing unwanted protein dimerisation, thus ensuring the presence of a single species in solution at all times. In addition, we noted a completely unexpected benefit of this mutation. […] Aggregation will also occur during turnover, especially at the higher P-450cam concentrations required in any economically viable industrial application in, for example, synthesis of organic molecules. […] Thus, the C334A mutation has beneficial effects in protein handling, storage, and increased catalyst lifetime.
# [12] = -- = no shift, nd = not determined
# T1 sequence (P00183 whole entry): as the sequence (P00183 whole entry) above
# T1 sequence (P00259 whole entry, further chain): as the sequence (P00259 whole entry, further chain) above
# T1 sequence (P16640 whole entry, further chain): as the sequence (P16640 whole entry, further chain) above
molecule,measurement,setting,value
CCCCCCC [n-Heptane],Wild type Vs DTT,[1],5
same,Wild type ΔSpin high/low,[1],5
same,Mutant Y96A Vs DTT,[2],40
same,Mutant Y96A ΔSpin high/low,[2]; [12],60
same,Turnover rate (NADH consumption rate) Wild type,[3],2.7 nmole NADH/nmole P450cam/s
same,Turnover rate (NADH consumption rate) Y96A,[4],4.4 nmole NADH/nmole P450cam/s
"OC1CCCC(c2ccccc2)C1 (single isomer, unassigned) [3-ol]",Products (%) WT,[5]; substrate cyclohexylbenzene,43%
same,Products(%) Y96A,[6]; substrate cyclohexylbenzene,20%
same,Products(%) Y96F,[7]; substrate cyclohexylbenzene,54%
same,Products (%) Y96L,[8],38%
same,Products (%) Y96V,[9],28%
CCCCCC [Hexane],Mutant Y96A Vs DTT,[2],60 and 40
same,Mutant Y96A ΔSpin high/low,[2],70 and 60
same,Turnover rate (NADH consumption rate) Wild type,[3],background
same,Turnover rate (NADH consumption rate) Y96A,[4],6.0 nmole NADH/nmole P450cam/s
same,Relative activity (WT = 1) Y96A,[6]; substrate hexane,25.5
same,Relative activity (WT = 1) Y96F,[7]; substrate hexane,18.2
O=C1C=C(c2ccccc2)CCC1 [3-one (A)],Products (%) WT,[5]; substrate phenylcyclohexene,24%
same,Products(%) Y96A,[6]; substrate phenylcyclohexene,25%
OC1C=C(c2ccccc2)CCC1 (centres unmarked) [3-ol (B)],Products (%) WT,[5]; substrate phenylcyclohexene,76%
same,Products(%) Y96A,[6]; substrate phenylcyclohexene,75%
O[C@H]1CC[C@@H](c2ccccc2)CC1 [Cis-4-ol],Products (%) WT,[5]; substrate cyclohexylbenzene,12%
same,Products(%) Y96A,[6]; substrate cyclohexylbenzene,45%
same,Products(%) Y96F,[7]; substrate cyclohexylbenzene,13%
same,Products (%) Y96L,[8],16%
same,Products (%) Y96V,[9],23%
CCCCC(C)C [2-methyl hexane],Turnover rate (NADH consumption rate) Wild type,[3],background
same,Turnover rate (NADH consumption rate) Y96A,[4],10.6 nmole NADH/nmole P450cam/s
same,Relative activity (WT = 1) Y96A,[6]; substrate 2-methyl hexane,2.6
same,Relative activity (WT = 1) Y96F,[7]; substrate 2-methyl hexane,2.3
O[C@H]1CC[C@H](c2ccccc2)CC1 [Trans-4-ol],Products (%) WT,[5]; substrate cyclohexylbenzene,25%
same,Products(%) Y96A,[6]; substrate cyclohexylbenzene,15%
same,Products(%) Y96F,[7]; substrate cyclohexylbenzene,6%
same,Products (%) Y96L,[8],23%
same,Products (%) Y96V,[9],10%
OC1CCCC(c2ccccc2)C1 (centres unmarked) [L or D 3-ol],Products (%) WT,[5]; substrate cyclohexylbenzene,20%
same,Products(%) Y96A,[6]; substrate cyclohexylbenzene,20%
same,Products(%) Y96F,[7]; substrate cyclohexylbenzene,27%
same,Products (%) Y96L,[8],23%
same,Products (%) Y96V,[9],39%
c1ccc(C2CCCCC2)cc1 [Cyclohexylbenzene],Wild type Vs DTT,[1],20
same,Wild type ΔSpin high/low,[1],20
same,Mutant Y96A ΔSpin high/low,[2]; [12],80
same,Total products WT,[5]; substrate cyclohexylbenzene,0.8 area/10^5
same,Total products Y96A,[6]; substrate cyclohexylbenzene,7.4 area/10^5
same,Total products Y96F,[7]; substrate cyclohexylbenzene,1.1 area/10^5
same,Total products Y96L,[8],10.4 area/10^5
same,Total products Y96V,[9],12.5 area/10^5
CCCCC [n-Pentane],Wild type Vs DTT,[1],5
same,Mutant Y96A Vs DTT,[2],40
same,Mutant Y96A ΔSpin high/low,[2]; [12],55
same,Turnover rate (NADH consumption rate) Wild type,[3],background
same,Turnover rate (NADH consumption rate) Y96A,[4],5.8 nmole NADH/nmole P450cam/s
CCCCCCCC [n-Octane],Wild type Vs DTT,[1],5
same,Mutant Y96A Vs DTT,[2],45
same,Mutant Y96A ΔSpin high/low,[2]; [12],80
same,Turnover rate (NADH consumption rate) Wild type,[3],background
same,Turnover rate (NADH consumption rate) Y96A,[4],5.8 nmole NADH/nmole P450cam/s
"wild-type P-450cam: mono-oxygenase cytochrome P-450cam from P. putida (protein, UniProt P00183 2-415, looked up) Camphor 5-monooxygenase: TTETIQSNANLAPLPPHVPEHLVFDFDMYNPSNLSAGVQEAWAVLQESNVPDLVWTRCNGGHWIATRGQLIREAYEDYRHFSSECPFIPREAGEAYDFIPTSMDPPEQRQFRALANQVVGMPVVDKLENRIQELACSLIESLRPQGQCNFTEDYAEPFPIRIFMLLAGLPEEDIPHLKYLTDQMTRPDGSMTFAEAKEALYDYLIPIIEQRRQKPGTDAISIVANGQVNGRPITSDEAKRMCGLLLVGGLDTVVNFLSFSMEFLAKSPEHRQELIERPERIPAACEELLRRFSLVADGRILTSDYEFHGVQLKKGDQILLPQMLSGLDERENACPMHVDFSRQKVSHTTFGHGSHLCLGQHLARREIIVTLKEWLTRIPDFSIAPGAQIQHKSGIVSGVQALPLVWDPATTKAV",presence of protein dimer,[10],dimer was detected
same,dimerisation and aggregation upon storage,[11],dimerisation as well as aggregation
"C58A: P-450cam surface mutant, cysteine 58 substituted to alanine (protein, UniProt P00183 2-415, looked up, variant C58A) Camphor 5-monooxygenase: TTETIQSNANLAPLPPHVPEHLVFDFDMYNPSNLSAGVQEAWAVLQESNVPDLVWTRANGGHWIATRGQLIREAYEDYRHFSSECPFIPREAGEAYDFIPTSMDPPEQRQFRALANQVVGMPVVDKLENRIQELACSLIESLRPQGQCNFTEDYAEPFPIRIFMLLAGLPEEDIPHLKYLTDQMTRPDGSMTFAEAKEALYDYLIPIIEQRRQKPGTDAISIVANGQVNGRPITSDEAKRMCGLLLVGGLDTVVNFLSFSMEFLAKSPEHRQELIERPERIPAACEELLRRFSLVADGRILTSDYEFHGVQLKKGDQILLPQMLSGLDERENACPMHVDFSRQKVSHTTFGHGSHLCLGQHLARREIIVTLKEWLTRIPDFSIAPGAQIQHKSGIVSGVQALPLVWDPATTKAV",presence of protein dimer,[10],dimer was detected
same,dimerisation and aggregation upon storage,[11],dimerisation as well as aggregation
"C148A: P-450cam surface mutant, cysteine 148 substituted to alanine (protein, UniProt P00183 2-415, looked up, variant C148A) Camphor 5-monooxygenase: TTETIQSNANLAPLPPHVPEHLVFDFDMYNPSNLSAGVQEAWAVLQESNVPDLVWTRCNGGHWIATRGQLIREAYEDYRHFSSECPFIPREAGEAYDFIPTSMDPPEQRQFRALANQVVGMPVVDKLENRIQELACSLIESLRPQGQANFTEDYAEPFPIRIFMLLAGLPEEDIPHLKYLTDQMTRPDGSMTFAEAKEALYDYLIPIIEQRRQKPGTDAISIVANGQVNGRPITSDEAKRMCGLLLVGGLDTVVNFLSFSMEFLAKSPEHRQELIERPERIPAACEELLRRFSLVADGRILTSDYEFHGVQLKKGDQILLPQMLSGLDERENACPMHVDFSRQKVSHTTFGHGSHLCLGQHLARREIIVTLKEWLTRIPDFSIAPGAQIQHKSGIVSGVQALPLVWDPATTKAV",presence of protein dimer,[10],dimer was detected
same,dimerisation and aggregation upon storage,[11],dimerisation as well as aggregation
"C85A: P-450cam surface mutant, cysteine 85 substituted to alanine (protein, UniProt P00183 2-415, looked up, variant C85A) Camphor 5-monooxygenase: TTETIQSNANLAPLPPHVPEHLVFDFDMYNPSNLSAGVQEAWAVLQESNVPDLVWTRCNGGHWIATRGQLIREAYEDYRHFSSEAPFIPREAGEAYDFIPTSMDPPEQRQFRALANQVVGMPVVDKLENRIQELACSLIESLRPQGQCNFTEDYAEPFPIRIFMLLAGLPEEDIPHLKYLTDQMTRPDGSMTFAEAKEALYDYLIPIIEQRRQKPGTDAISIVANGQVNGRPITSDEAKRMCGLLLVGGLDTVVNFLSFSMEFLAKSPEHRQELIERPERIPAACEELLRRFSLVADGRILTSDYEFHGVQLKKGDQILLPQMLSGLDERENACPMHVDFSRQKVSHTTFGHGSHLCLGQHLARREIIVTLKEWLTRIPDFSIAPGAQIQHKSGIVSGVQALPLVWDPATTKAV",presence of protein dimer,[10],dimer was detected
same,dimerisation and aggregation upon storage,[11],dimerisation as well as aggregation
"C136A: P-450cam surface mutant, cysteine 136 substituted to alanine (protein, UniProt P00183 2-415, looked up, variant C136A) Camphor 5-monooxygenase: TTETIQSNANLAPLPPHVPEHLVFDFDMYNPSNLSAGVQEAWAVLQESNVPDLVWTRCNGGHWIATRGQLIREAYEDYRHFSSECPFIPREAGEAYDFIPTSMDPPEQRQFRALANQVVGMPVVDKLENRIQELAASLIESLRPQGQCNFTEDYAEPFPIRIFMLLAGLPEEDIPHLKYLTDQMTRPDGSMTFAEAKEALYDYLIPIIEQRRQKPGTDAISIVANGQVNGRPITSDEAKRMCGLLLVGGLDTVVNFLSFSMEFLAKSPEHRQELIERPERIPAACEELLRRFSLVADGRILTSDYEFHGVQLKKGDQILLPQMLSGLDERENACPMHVDFSRQKVSHTTFGHGSHLCLGQHLARREIIVTLKEWLTRIPDFSIAPGAQIQHKSGIVSGVQALPLVWDPATTKAV",presence of protein dimer,[10],dimer was detected
same,dimerisation and aggregation upon storage,[11],dimerisation as well as aggregation

# From patent US6117661A, “Mutant mono-oxygenase cytochrome P450cam” (BG plc, priority 1995, dated 2000)
